# US7094869B2, “Low molecular weight peptidomimetic growth hormone secretagogues” (Genentech, Inc., priority 1994, dated 2006)
# Read-outs that look alike come from different tables or passages of the source. Non-standard residues stand in square brackets, D forms with d. Residues, ends and D or L forms follow the SMILES beside them. ξ: configuration not given here. *: point of attachment. Tyr(3-I) = N[C@@H](Cc1ccc(O)c(I)c1)C(=O)O; dNMe2Nal = CN[C@H](Cc1ccc2ccccc2c1)C(=O)O; d2Nal = N[C@H](Cc1ccc2ccccc2c1)C(=O)O; ξNMe2Nal = CNC(Cc1ccc2ccccc2c1)C(=O)O; d(hPhe) = N[C@H](CCc1ccccc1)C(=O)O; ξ2Nal = NC(Cc1ccc2ccccc2c1)C(=O)O; Tic = O=C(O)[C@@H]1Cc2ccccc2CN1; NHPhenethyl = c1ccc(CCN*)cc1; Inp = O=C(O)C1CCNCC1; ξK = NCCCCC(N)C(=O)O; Ahx = NCCCCCC(=O)O; Ava = NCCCCC(=O)O; GABA = NCCCC(=O)O
# How the values were obtained:
# rat pituitary cells = rat pituitary cells (Rattus norvegicus, UniProt O08725)
# rat pituitary cells, sequence (O08725 whole entry, the tested form may be a part): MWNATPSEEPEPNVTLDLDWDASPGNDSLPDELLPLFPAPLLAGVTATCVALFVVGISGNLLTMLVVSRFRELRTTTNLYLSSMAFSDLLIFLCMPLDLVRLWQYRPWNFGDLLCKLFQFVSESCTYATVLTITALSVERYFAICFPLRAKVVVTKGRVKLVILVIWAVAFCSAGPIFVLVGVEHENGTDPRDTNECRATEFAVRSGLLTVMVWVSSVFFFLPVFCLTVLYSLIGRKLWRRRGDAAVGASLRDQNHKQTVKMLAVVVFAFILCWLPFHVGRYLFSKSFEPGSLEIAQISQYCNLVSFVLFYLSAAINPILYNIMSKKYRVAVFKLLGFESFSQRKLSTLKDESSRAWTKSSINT
# Method: Pituitaries from ten rats were removed, the posterior pituitary discarded and the anterior pituitary placed in Hanks' Balanced Salt Solution (HBSS: without calcium chloride, w/o magnesium chloride, w/o magnesium sulfate; Gibco) containing 20 mM HEPES (Gibco) and 100 U/ml penicillin streptomycin (PS: JRH Biosciences). Under sterile conditions, pituitaries were rinsed twice then minced into small fragments with a razor blade. […] After the incubation, fragments were triturated to yield small clumps and single cells. The cells were centrifuged 1000× g for 5 min, resuspended, counted and plated at a final cell concentration of 100,000 cells/ml. Incubation media was DME low glucose media w/NaHCO3 (Gibco) containing 20 mM hepes, 100 U/ml PS and 10% FBS (Hyclone A-111-L). Cells were plated at 0.5 ml per well in 48 well plates (Falcon) and incubated at 37° C. in 5% C02 for three days. For challenges to determine release of other pituitary hormones cells were plated at 200,000 cells per ml with 2 ml per well of a Swell plate (Corning). Challenge: A (inip)bbFK-NH2 stock (or other GHRP) concentration of 1 mM was made in DMSO and diluted with warmed media approximately 30 min prior to use. The highest concentration of DMSO in media was 0.1%. Stock solutions (1 mM) of rat GHRH, somatostatin (Sigma) and GHRP antagonist HwkWfK were made fresh in media and diluted appropriately. The media used in all challenges and washing steps was DME low glucose with 20 mM Hepes, 100 U/ml PS, 10% FBS. Media was warmed to 37° C. and gassed by placing it into the incubator prior to challenge. On day three, the media was discarded and fresh media (approximately 1 ml) added for the first of three washes. After the last wash, the plate was placed back in the incubator for a 15 min pre-incubation. Then cells were washed 2× (with warmed and gassed media) and fresh 0.5 ml media were added for the second 15 min. pre-incubation. After the second pre-incubation cells were washed 2× as above and 0.5 ml of control and test solutions were added for a final 15 min incubation. After this incubation, the media were removed for subsequent GH ELISA. GH ELISA: A two-site ELISA was used to determine rat GH concentration in the media. […] After blocking and washing, standard (rat GH reference preparation: Parlow) and challenge media is diluted 1:20 prior to GH assay were added for a 1 hr room temperature incubation. STATISTICS: The mean for each group was determined and analyzed by one-way analysis of variance with a post-hoc Student-Newman-Keuls. Significance is defined as P<0.05. The EC50 was calculated using a 4-parameter curve-fit program (Kaleidagraph). Three to four independent EC50s were used to derive the mean and SEM. RIA of pituitary hormones: LH, FSH, TSH, and Prolactin were determined with commercially available kits from Amersham, and ACTH levels were determined by a RIA kit from ICN. CALCIUM FLUX EXPERIMENT: Pituitary cells were plated on fibronectin (Collaborative Research) coated two-chambered slide wells (Nunc). After four days in monolayer culture cells were rinsed three times with HBSS (Gibco) in 1% BSA and 15 mM HEPES and then incubated for 30 min at 37° C. with 5 μM Indo-1 AM (Molecular Probes, Eugene) in HBSS also containing 1% pluronic F127 (Molecular Probes). The cells were rinsed once and fresh media added for RT incubation. […] C^++ flux was imaged with a Meridian ACAS 570 using stage scanning at 21 second intervals.
# growth hormone secretion = assay: GHRP induced growth hormone secretion, intravenous administration (Rat IV); assay type: in vivo; settings: iv injection, serum GH 10 min after injection
# Method: Immature weanling female Sprague Dawley rats were purchased from Charles River Labs (Portage, […].) and group housed with water and food available ad libitum. When the rats were 24-30 days old (weighing 50-90 g) they were anesthetized with pentobarbitone (4 mg in 0.5 ml, approximately 60 mg/kg) given by intraperitoneal injection. The rats were then placed briefly on a heated pad, to distend their tail veins, and given an intravenous tail vein injection of the peptides 20 minutes after receiving the anesthetic. The intravenous injection was of 0.1 ml using a 1 ml syringe. The injections contained graded doses of peptides or the vehicle (vehicle for all peptides given intravenously was a buffer of 20 mM sodium acetate, 45 g/l mannitol, pH 5.0). Ten minutes after the intravenous injection blood was taken by cardiac puncture, using a 3 ml syringe, and the rats were then sacrificed.
# The blood was then clotted on ice, centrifuged, serum decanted and frozen for subsequent analysis using the rat GH ELISA described elsewhere in the application. For the rat GH ELISA the serum was diluted 1:50 or 1:250, depending on the expected serum GH concentrations achieved, and assayed in duplicate.
# [1] = read-out: PIT Cell EC50, Table IV, formula III compounds, GH release, 15 min incubation
# [2] = read-out: PIT Cell EC50, Table VI, retroinverso compounds of formula V, GH release, 15 min incubation
# [3] = read-out: PIT Cell EC50, Table III, formula IV compounds, GH release, 15 min incubation
# [4] = read-out: PIT Cell EC50, Table V, formula II compounds, GH release, 15 min incubation
compound,measurement,setting,value
N[C@H]1CC[C@H](NC(=O)[C@@H](Cc2ccc3ccccc3c2)NC(=O)[C@@H](Cc2ccc3ccccc3c2)NC(=O)C2CCNCC2)CC1 [(inip) b b cxa],EC50,rat pituitary cells; [1],14 nM
same,RAT IV ED50,growth hormone secretion; Table IV,10 µg
"CC(=O)N[C@H](Cc1ccc2ccccc2c1)C(=O)N[C@@H](Cc1ccc2ccccc2c1)C(=O)N[C@@H](Cc1ccc2ccccc2c1)C(=O)NCCCN [Ac b B B ram, Acetyl-DβNal-βNal-βNal-[N-(3-aminopropyl)] amide]",EC50,rat pituitary cells; [2],4.8 nM
same,RAT IV ED50,growth hormone secretion; Table VI,100 µg
CN(C(=O)CCCCN)[C@H](Cc1ccc2ccccc2c1)C(=O)N[C@H](Cc1ccc2ccccc2c1)C(=O)N[C@@H](Cc1ccccc1)C(N)=O [(Ava) nmb b F amide] (H-[Ava][dNMe2Nal][d2Nal]F-NH2),EC50,rat pituitary cells; [1],1.6 nM
same,RAT IV ED50,growth hormone secretion; Table IV,20 µg
"CN(C(=O)CCCCN)C(Cc1ccc2ccccc2c1)C(=O)N[C@H](Cc1ccc2ccccc2c1)C(=O)N[C@@H](Cc1ccccc1)C(=O)NC(CCCCN)C(N)=O (stereo partly drawn) [(Ava) nmb b F K amide, (5-aminovaleryl)-(N-Me-DβNal)-DβNal-Phe-Lys-amide] (H-[Ava][ξNMe2Nal][d2Nal]F[ξK]-NH2)",EC50,rat pituitary cells; [3],1.8 nM
same,RAT IV ED50,growth hormone secretion; Table III,0.4 µg
"CN(C(=O)C1CCNCC1)C(Cc1ccc2ccccc2c1)C(=O)N[C@H](Cc1ccc2ccccc2c1)C(=O)N[C@@H](Cc1ccccc1)C(=O)NC(CCCCN)C(N)=O (stereo partly drawn) [(inip) nmb b F K amide, (inip)-(N-Me-DβNal)-DβNal-Phe-Lys-amide] (H-[Inp][ξNMe2Nal][d2Nal]F[ξK]-NH2)",EC50,rat pituitary cells; [3],0.27 nM
same,RAT IV ED50,growth hormone secretion; Table III,0.4 µg
"CN(C(=O)[C@@H](Cc1ccc2ccccc2c1)NC(=O)C1CCNCC1)[C@@H](CO)Cc1ccc2ccccc2c1 [(inip) b nbol, (inip)-DβNal-(N-Methyl-D-β-naphthylalanol)]",EC50,rat pituitary cells; [4],3 nM
same,RAT IV ED50,growth hormone secretion; Table V,20 µg
NCCCC[C@H](NC(=O)[C@H](Cc1ccccc1)NC(=O)[C@@H](Cc1ccc2ccccc2c1)NC(=O)[C@@H](Cc1ccc2ccccc2c1)NC(=O)C1CCNCC1)C(=O)N[C@@H](Cc1ccc(O)cc1)C(N)=O [(inip) b b F K Y amide] (H-[Inp][d2Nal][d2Nal]FKY-NH2),EC50,rat pituitary cells; [3],0.43 nM
same,RAT IV ED50,growth hormone secretion; Table III,1 µg
O=C(N[C@H](Cc1ccc2ccccc2c1)C(=O)N[C@@H](CO)Cc1ccc2ccccc2c1)C1CCNCC1 [(inip) b bol],EC50,rat pituitary cells; [4],2 nM
same,RAT IV ED50,growth hormone secretion; Table V,10 µg
"NCCCNC(=O)[C@H](Cc1ccc2ccccc2c1)NC(=O)[C@@H](Cc1ccc2ccccc2c1)NC(=O)[C@@H](Cc1ccc2ccccc2c1)NC(=O)CCCN [(Ab) b b B ram, (4-Aminobutanoyl)-DβNal-DβNal-βNal-[N-(3-aminopropyl)] Amide]",EC50,rat pituitary cells; [3],2.4 nM
same,RAT IV ED50,growth hormone secretion; Table III,10 µg
"O=C(N[C@H](Cc1ccc2ccccc2c1)C(=O)N[C@H](Cc1ccc2ccccc2c1)C(=O)N[C@@H](Cc1ccccc1)C(=O)O)C1CCNCC1 [(inip) b b F acid, (inip)-DβNal-DβNal-Phe] (H-[Inp][d2Nal][d2Nal]F-OH)",EC50,rat pituitary cells; [1],0.2 nM
same,RAT IV ED50,growth hormone secretion; Table IV,2 µg
"NCCCCC(NC(=O)[C@H](Cc1ccccc1)NC(=O)[C@@H](Cc1ccc2ccccc2c1)NC(=O)C(Cc1ccc2ccccc2c1)NC(=O)CCCN)C(N)=O (stereo partly drawn) [(Ab) b b F K amide, (4-aminobutanoyl)-DβNal-DβNal-Phe-Lys-amide] (H-[GABA][ξ2Nal][d2Nal]F[ξK]-NH2)",EC50,rat pituitary cells; [3],0.4 nM
same,RAT IV ED50,growth hormone secretion; Table III,1 µg
NC(=O)CCCNC(=O)[C@@H](Cc1ccc2ccccc2c1)NC(=O)[C@@H](Cc1ccc2ccccc2c1)NC(=O)C1CCNCC1 [(inip) b b ab amide] (H-[Inp][d2Nal][d2Nal][GABA]-NH2; N-terminus assumed),RAT IV ED50,growth hormone secretion; Table IV,10 µg
NCCCC[C@H](NC(=O)[C@H](Cc1ccccc1)NC(=O)[C@@H](Cc1c[nH]c2ccccc12)NC(=O)[C@@H](Cc1ccc2ccccc2c1)NC(=O)C1CCNCC1)C(N)=O [(inip) b w F K amide] (H-[Inp][d2Nal][dW]FK-NH2),RAT IV ED50,growth hormone secretion; Table III,0.070 µg
CN[C@H](Cc1ccc2ccccc2c1)C(=O)N[C@H](Cc1ccc2ccccc2c1)C(=O)N[C@@H](Cc1ccc(O)cc1)C(=O)N[C@@H](CCCCN)C(N)=O [nmb b Y K amide] (H-[dNMe2Nal][d2Nal]YK-NH2),RAT IV ED50,growth hormone secretion; Table III,500 µg
NCCCCCC(=O)N[C@H](Cc1ccc2ccccc2c1)C(=O)N[C@H](Cc1ccc2ccccc2c1)C(=O)N[C@@H](Cc1ccccc1)C(=O)N[C@@H](CCCCN)C(N)=O [(ahx) b b F K amide] (H-[Ahx][d2Nal][d2Nal]FK-NH2),RAT IV ED50,growth hormone secretion; Table III,250 µg
"O=C(N[C@H](Cc1ccc2ccccc2c1)C(=O)N[C@H](Cc1ccc2ccccc2c1)C(=O)N[C@@H](Cc1ccc(O)c(I)c1)C(=O)O)C1CCNCC1 [(inip) b b Y(I) acid, (inip)-DβNal-DβNal-(3-I-Tyr)] (H-[Inp][d2Nal][d2Nal][Tyr(3-I)]-OH)",EC50,rat pituitary cells; [1],0.1 nM
NC(=O)[C@@H]1Cc2ccccc2CN1C(=O)[C@@H](Cc1ccc2ccccc2c1)NC(=O)[C@@H](Cc1ccc2ccccc2c1)NC(=O)C1CCNCC1 [(inip) b b (Tic) amide] (H-[Inp][d2Nal][d2Nal][Tic]-NH2),RAT IV ED50,growth hormone secretion; Table IV,10 µg
O=C(N[C@@H](Cc1ccc2ccccc2c1)C(=O)N[C@@H](Cc1ccc2ccccc2c1)C(=O)NC1CCNCC1)C1CCNCC1 [(inip) B B api],EC50,rat pituitary cells; [2],96 nM
NC1CCN(C(=O)[C@@H](Cc2ccc3ccccc3c2)NC(=O)[C@@H](Cc2ccc3ccccc3c2)NC(=O)C2CCNCC2)CC1 [(inip) b b apc],EC50,rat pituitary cells; [1],39 nM
NCCCNC(=O)[C@H](Cc1ccc2ccccc2c1)NC(=O)[C@H](Cc1ccc2ccccc2c1)NC(=O)[C@@H](Cc1ccc2ccccc2c1)NC(=O)CCCN [(Ab) b B B ram],EC50,"rat pituitary cells; read-out: mean EC50, mean ± SE of independent EC50s",2 nM
"O=C(N[C@H](Cc1ccc2ccccc2c1)C(=O)N[C@H](Cc1ccc2ccccc2c1)C(=O)NCCc1ccccc1)C1CCNCC1 [(inip) b b fem, (inip)-DβNal-DβNal-(N-2-phenylethyl) amide] (H-[Inp]-[d2Nal]-[d2Nal]-NHPhenethyl)",EC50,rat pituitary cells; [1],2.04 nM
NC(=O)[C@H](Cc1ccccc1)NC(=O)[C@@H](CCc1ccccc1)NC(=O)[C@@H](CCc1ccccc1)NC(=O)C1CCNCC1 [(inip) hf hf F amide] (H-[Inp][d(hPhe)][d(hPhe)]F-NH2),EC50,rat pituitary cells; [1],> 1000 nM
"CN(C)C(=O)C(Cc1ccccc1)NC(=O)[C@@H](Cc1ccc2ccccc2c1)NC(=O)[C@@H](Cc1ccc2ccccc2c1)NC(=O)C1CCNCC1 (single isomer, unassigned) [(inip) b b F dam]",RAT IV ED50,growth hormone secretion; Table III,10 µg
"NC(=O)[C@H](Cc1ccccc1)NC(=O)[C@@H](Cc1c[nH]c2ccccc12)NC(=O)[C@@H](Cc1c[nH]c2ccccc12)NC(=O)[C@@H](N)Cc1ccc(O)cc1 [Y w w F amide, reference compound] (H-Y[dW][dW]F-NH2)",EC50,rat pituitary cells,1000 nM
